Test results as given in US20250360108A1, “CATALYTIC INHIBITOR OF PROTEIN PHOSPHATASE 5 ACTIVATES THE EXTRINSIC APOPTOTIC PATHWAY BY DISRUPTING COMPLEX II” (The Research Foundation for the State University of New York, priority 2022, published 2025).
Blank lines part the entries; values can stand above or below the compound they belong to. Residues, ends and D or L forms follow the SMILES beside them. *: point of attachment. Cbz = O=C(OCc1ccccc1)*; CH2F = FC*

Tests used:
PP5 = PP5 inhibition in cells by immunoblotting of PP5 substrates phospho-S211-GR and phospho-S13-Cdc37; type: cell-based, human; settings: 786-O cells, indicated amounts, 24 hrs
Experimental: Protein Extraction, Immunoprecipitation and Immunoblotting: Protein extraction from mammalian cells was carried out using methods previously described. Cell lysates were quantified using 1× Bradford reagent (Biorad). For immunoprecipitation, cell lysates were incubated with anti-FLAG antibody conjugated beads (Sigma) or anti-HA conjugated beads (ThermoFisher Scientific) at 4° C. for 2 hrs. Endogenous IPs were achieved by incubating lysate with anti-PP5 antibody (Cell Signaling), anti-FADD antibody (Cell Signaling), or anti-RIPK1 antibody (Cell Signaling) overnight followed by protein G agarose (Invitrogen) at 4° C. for 2 hrs. Immunopellets were washed 4 times with fresh lysis buffer (20 mM Tris-HCl (pH 7.4), 100 mM NaCl, 1 mM MgCl2, 0.1% NP40, protease inhibitor cocktail (Roche), and PhosSTOP (Roche)) and eluted in 5× Laemmli buffer. Precipitated proteins were separated by SDS-PAGE and transferred to nitrocellulose membranes. Co-immunoprecipitated proteins or proteins from cell lysate were detected with antibodies recognizing FLAG, 6×-His (ThermoFisher Scientific), GAPDH (ENZO Life Sciences), Cdc37 (StressMarq), GR, phospho-GR (S211), PP5, caspase-3, cleaved caspase-3, caspase-8, cleaved caspase-8, cleaved caspase-7, cleaved-PARP, phospho-RIPK1 (S166), phospho-FADD (S194), PP2A-C, VHL (Cell Signaling), phospho-RIPK1 (S161) (Invitrogen), PP5 and phospho-Cdc37 (S13) (Abcam). […]

recombinant PP5-His6 = target: T1, recombinant PP5-His6 (Homo sapiens, UniProt P53041); assay: PP5 Phosphatase Activity and Inhibition Assay (PiPer phosphate release, phospho-S211-GR peptide); type: biochemical; settings: phospho-S211-GR peptide substrate
T1 construct: GST (N, cleaved yes); made in house
T1 sequence (P53041 1-499): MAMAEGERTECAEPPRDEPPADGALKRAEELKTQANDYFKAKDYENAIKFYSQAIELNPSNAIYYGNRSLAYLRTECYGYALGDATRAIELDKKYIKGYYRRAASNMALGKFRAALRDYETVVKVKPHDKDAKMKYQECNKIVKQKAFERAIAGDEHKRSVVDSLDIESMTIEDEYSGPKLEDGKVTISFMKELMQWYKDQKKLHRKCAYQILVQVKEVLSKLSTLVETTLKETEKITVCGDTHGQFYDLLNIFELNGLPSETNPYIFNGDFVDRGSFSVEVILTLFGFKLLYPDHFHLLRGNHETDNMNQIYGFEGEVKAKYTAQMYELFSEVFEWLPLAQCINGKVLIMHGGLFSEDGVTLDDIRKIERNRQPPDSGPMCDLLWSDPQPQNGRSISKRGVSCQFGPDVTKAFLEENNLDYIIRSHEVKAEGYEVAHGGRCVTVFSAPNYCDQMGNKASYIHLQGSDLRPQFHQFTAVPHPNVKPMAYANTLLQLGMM
Experimental: PP5 inhibitors specifically bind to the phosphatase-catalytic domain: We next sought to measure the inhibition of PP5 activity in vitro with P5 and P13.
Bacterial Expression and Protein Purification of PP5: Human PPP5c was cloned into pGEX6P1 with an N-terminal GST tag and C-terminal His6 tag. Transformed cells were grown at 37° C. in LB with 100 mg/L ampicillin until OD600=0.6 and induced with 1 mM IPTG. Cells were harvested by centrifugation and lysed by sonication in lysis buffer (50 mM Hepes (pH 8.0), 150 mM NaCl, 0.5 mM TCEP and EDTA-free protease inhibitor cocktail tablet (Roche)). Lysate was incubated with talon resin (Takara Bio) for 1 hr at 4° C. The resin was washed three times with lysis buffer and PP5 was eluted with lysis buffer containing 250 mM imidazole. Precision protease was added to the elution overnight to cleave the GST tag and the sample was then mixed with Glutathione Sepharose resin (Cytiva) to remove the free GST and un-cleaved protein. The sample was applied to a Superdex S75 16/60 size exclusion column (GE Healthcare) and eluted in 100 mM NaCl, 20 mM Hepes pH 8, 02 mM TCEP.
PP5 Phosphatase Activity and Inhibition Assay: The phosphatase activity of the recombinant PP5-His6 was measured using the PiPer™ Phosphate Assay Kit (Thermo Fisher Scientific) as described in the manufacturer's protocol. Standard curve with linear fit line was created from 0-1 nM Pifinal concentration reactions. 1 nM of PP5-His6 was added to each reaction with indicated amounts of custom synthesized substrate phospho-S211-glucocorticoid receptor (PhosS211-GR) peptide (see Key Resources Table) as specific substrate (Thermo Fisher Scientific). Reactions were run in triplicate and incubated at 37° C. for over 10 min. […] Enzyme kinetics were calculated and plotted using Lineweaver Burk plot and web-based tool (https://www.aatbio.com/tools/ic50-calculator) for calculating IC50 and (https://bioinfo-abcc.ncifcrf.gov/IC50_Ki_Converter/index.php) for converting IC50 to Ki values for inhibitors of enzyme activity and ligand binding.

786-O cells [1] = assay: Cell viability / proliferation MTT assay; type: cell-based, human; settings: varying doses, 48 hrs
Experimental: Cell Viability Assay: Renal cancer cell lines 786-O, Caki-2, Caki-1, and A498 as well as the normal renal cell line HK-2 were plated at 10,000 cells per well in 96-well plates. […] After 24 or 48 hrs, cell viability assay was performed using the Quick Cell Proliferation Kit Plus (BioVision) according to the manufacturer's protocol. The absorbance at 450 nm was measured on a Tecan Infinite M200 Pro and proliferation rate was calculated.

786-O cells [2] = assay: Induction of apoptosis by immunoblotting of apoptotic markers; type: cell-based, human
Experimental: Method Details Cell Transfection and Treatment: Cultured cells were split and then transfected the following day when about 40% confluent with each construct using Mirus TranslT-2020 (MirusBio) according to manufacturer's protocol. Cells were incubated at 37° C. and then extracted or collected for analysis after 24 hrs (HEK293) or 72 hrs (ccRCC cell lines). Short interfering RNA (siRNA) scramble control and PPP5C (PP5) targeting duplexes were purchased from OriGene (SKU: SR321403A, SR321403B, and SR321403C). Indicated cells were transiently transfected with the siRNA using Mirus TranslT-2020. For PP5 knock-down, either 30 nM of control siRNA or 10 nM of each PP5 siRNA duplex (A, B and C) were mixed prior to transfection. Cells were incubated at 37° C. for 72 hrs, then harvested for protein extraction. […] Cells were then harvested for protein extraction.
(§1) Protein Extraction, Immunoprecipitation and Immunoblotting: Protein extraction from mammalian cells was carried out using methods previously described. Cell lysates were quantified using 1× Bradford reagent (Biorad). For immunoprecipitation, cell lysates were incubated with anti-FLAG antibody conjugated beads (Sigma) or anti-HA conjugated beads (ThermoFisher Scientific) at 4° C. for 2 hrs. Endogenous IPs were achieved by incubating lysate with anti-PP5 antibody (Cell Signaling), anti-FADD antibody (Cell Signaling), or anti-RIPK1 antibody (Cell Signaling) overnight followed by protein G agarose (Invitrogen) at 4° C. for 2 hrs. Immunopellets were washed 4 times with fresh lysis buffer (20 mM Tris-HCl (pH 7.4), 100 mM NaCl, 1 mM MgCl2, 0.1% NP40, protease inhibitor cocktail (Roche), and PhosSTOP (Roche)) and eluted in 5× Laemmli buffer. Precipitated proteins were separated by SDS-PAGE and transferred to nitrocellulose membranes. Co-immunoprecipitated proteins or proteins from cell lysate were detected with antibodies recognizing FLAG, 6×-His (ThermoFisher Scientific), GAPDH (ENZO Life Sciences), Cdc37 (StressMarq), GR, phospho-GR (S211), PP5, caspase-3, cleaved caspase-3, caspase-8, cleaved caspase-8, cleaved caspase-7, cleaved-PARP, phospho-RIPK1 (S166), phospho-FADD (S194), PP2A-C, VHL (Cell Signaling), phospho-RIPK1 (S161) (Invitrogen), PP5 and phospho-Cdc37 (S13) (Abcam). Secondary antibodies raised against mouse and rabbit (Cell Signaling) were used (See Key Resources Table).

Hsp90 = assay: Time course with Hsp90 inhibitor SNX-2112, protein levels by immunoblot; type: cell-based, human; settings: HEK293 cells, 2 μM
Experimental: Since a vast majority of PP5 substrates are also clients of the molecular chaperone Hsp90, we asked whether RIPK1 and FADD are clients of this chaperone. We therefore performed a time course assay using the Hsp90 inhibitor SNX-2112 (2 μM) in HEK293 cells. […] To further understand the relationship between FADD and Hsp90, we immunoprecipitated endogenous FADD from 786-O cells and examined the co-IP of Hsp90 (FIG. 4G).
as §1

PP5-FLAG = target: T2, PP5-FLAG (Homo sapiens, UniProt P53041); assay: Biotin-P5 and biotin-P13 pulldown from HEK293 lysate; type: binding; settings: 0.01-10 μM
T2 construct: expressed in transfected cells; host or cells: HEK293
T2 sequence (P53041 1-499): T1 sequence (P53041 1-499)
Experimental: Biotin-P5 and biotin-P13 Pulldown: HEK293 cells were transiently transfected with PP5-FLAG or active site point mutants and protein lysate extracted. Lysate was incubated with 0.01-10 μM biotin-P5 or biotin P-13 as indicated at 4° C. for 1 hr then added to streptavidin-conjugated agarose and incubated at 4° C. for 1 hr. Following three washes with fresh extraction buffer bound proteins were eluted in 5× Laemmli buffer and analyzed by Western blot. […] Samples were run by SDS PAGE, transferred to nitrocellulose membrane, and analyzed by Western blot.

PP2A = assay: Biotin-P5 / biotin-P13 pulldown in 786-O lysate, co-pulldown of PP2A; type: binding, human; settings: cell lysate, 1 μM

SMILES: Cc1noc(C)c1S(=O)(=O)Nc1ccc(O)c(C(=O)O)c1 [Compound P0]
- phosphorylation of PP5 substrates phospho-S13-Cdc37 and phospho-S211-GR (PP5): dose dependent increase in phosphorylation

- mode of PP5 inhibition (enzyme kinetics, Lineweaver-Burk) (recombinant PP5-His6): competitive inhibitors
- Ki (recombinant PP5-His6; IC50 converted to Ki): 277 ± 50 nM
SMILES: COC(=O)c1cccc(NS(=O)(=O)c2c(C)noc2C)c1 [Compound P5, Methyl m-(3,5-dimethyl-4-isoxazolylsulfonylamino)benzoate]
- proliferation of 786-O cells (MTT) (786-O cells [1]): significantly inhibited the proliferation
- cleavage of apoptotic markers caspase 3 and 8 and PARP (786-O cells [2]; 10 μM, 24 hrs): cleavage of the apoptotic markers caspase 3 and 8 and PARP

SMILES: CCCCN(c1ccc(Oc2ccccc2)cc1)S(=O)(=O)c1c(C)noc1C [Compound P058, N-Butyl(3,5-dimethyl-4-isoxazolylsulfonyl)(p-phenoxyphenyl)amine]
- induction of apoptosis (cleaved PARP, cleaved caspase 8) (786-O cells [2]; 10 μM, 24 hrs): had the ability to induce apoptosis

SMILES: Cc1noc(C)c1S(=O)(=O)N(CCCCl)c1ccc(Oc2ccccc2)cc1 [Compound P059, (3-Chloropropyl)(3,5-dimethyl-4-isoxazolylsulfonyl)(p-phenoxyphenyl)amine]
- induction of apoptosis (cleaved PARP, cleaved caspase 8) (786-O cells [2]; 10 μM, 24 hrs): had the ability to induce apoptosis

SMILES: Cc1noc(C)c1S(=O)(=O)N(CCCC#N)c1ccc(Oc2ccccc2)cc1 [Compound P075, 4-[(3,5-Dimethyl-4-isoxazolylsulfonyl)(p-phenoxyphenyl)amino]butyronitrile]
- induction of apoptosis (cleaved PARP, cleaved caspase 8) (786-O cells [2]; 10 μM, 24 hrs): had the ability to induce apoptosis

SMILES: CC1(C)CC(=O)c2c(C(F)(F)F)nn(-c3ccc(C(N)=O)c(N[C@H]4CC[C@H](O)CC4)c3)c2C1 [SNX-2112]
- RIPK1 protein levels (Hsp90; 16 hr): decreased RIPK1 protein levels
- FADD protein levels (Hsp90; throughout time course): did not observe a decrease in FADD levels
- Hsp90 clients Tsc2, Akt and phos-Ser473-Akt protein levels (Hsp90; time course): destabilized and degraded

- binding of PP5-FLAG to biotinylated compound (streptavidin pulldown) (PP5-FLAG): binds
- binding to PP2A (PP2A): did not bind
SMILES: Cc1noc(C)c1S(=O)(=O)Nc1cccc(C(=O)N2CCN(C(=O)CCC[C@@H]3SC[C@@H]4NC(=O)N[C@@H]43)CC2)c1 [biotin-P5, N-[3-(4-(4-[(3aS,4S,6aR)-2-Oxo-hexahydro-1H-thieno[3,4-d]imidazol-4-yl]butanoyl)piperazine-1-carbonyl)phenyl]-3,5-dimethyl-1,2-oxazole-4-sulfonamide]

SMILES: COC(=O)C[C@H](NC(=O)[C@H](C)NC(=O)[C@@H](NC(=O)OCc1ccccc1)C(C)C)C(=O)CF [z-VAD-fmk, reference compound] (Cbz-Val-Ala-Asp(OMe)-CH2F)
- effect on IC261-induced apoptosis (786-O cells [2]; 10 μM for 1 hr, then IC261 for 16 hrs): reversed this effect
